We go through 23 compounds from patent publication EP1268431B1 (Wyeth, priority 2000, dated 2001).

One assay concerns the target T1, c-Src (Homo sapiens, UniProt P12931).
T1 construct: purchased Upstate Biotechnologies
Put plainly: c-Src Kinase Assay (ELISA format). It counts as biochemical. How it is done: Inhibitors of Src (partially purified preparation purchased from Upstate Biotechnologies) tyrosine kinase activity are analyzed in an ELISA format. […] Horseradish Peroxidase (HRP)-conjugated anti-phosphotyrosine is used to detect phosphorylated peptide via a color reaction. Conditions recommended by the manufacturer are employed.
Reaction conditions: Five microliter aliquots of each compound prepared fresh at the time of the assay are added as a solution in 10mM HEPES pH 7.5, 10% DMSO to the reaction well. Thirty-five microliters of reaction mix containing Src, buffer and peptide/bovine serum albumin mix are added to the compound wells and incubated at 30°C for 10 minutes (reaction buffer: 50mM TrisHCl pH 7.5, 10mM MgCl2, 0.1mM EGTA, 0.5mM Na3VO4). The reaction is started by addition of 10 microliters of ATP, incubated at 30°C for 1 hour, and stopped by addition of 20 microliters of 0.5M EDTA. The reaction mixture with the phosphorylated peptide is then transferred to a streptavidin-coated microtiter plate (provided in the kit) and allowed to bind for 20 minutes. Unbound peptide and reaction mixture is decanted and the plate is washed with PBS six times. HRP-conjugated phosphotyrosine antibody supplied in the kit is incubated with the plate for one hour, then decanted. The plate is again washed with PBS six times.
Activity is determined as % inhibition as calculated by the formula: (1 - Abs/Abs(max)) x 100 = % inhibition.
In general terms: In an ELISA, binding on a coated surface is turned into a signal by an enzyme label.

Assay [1] relates to Rat2 fibroblasts stably transformed with a plasmid containing a CMV promotor controlled v-Src/Hu c-Src fusion gene. Put plainly: Anchorage Independent Src-transformed Fibroblast Proliferation Assay.
Where [2] appears, read: read-out: anch-indep src-tx fib IC50, suspension growth, MTS on Day 5.
[3] abbreviates: Rattus norvegicus, Rat2, 120 h, read-out: anch-indep src-tx fib IC50, suspension growth, MTS on Day 5.

Several values for one entry are separate records, joined by “and”; a condition that tells them apart may be missing. Equal values may be shown once. Read-outs that look alike come from different tables or passages of the source.

A word on the IC50: it is the midpoint of a concentration-inhibition curve. In the case of “4-(2,4-Dichloro-5-methoxyanilino)-7-{5-[(4-hydroxy-1-piperidinyl)methyl]-2-thienyl}-3-quinolinecarbonitrile [Example 89]”, the IC50 against c-Src is 0.52 nM and 0.84 nM; in assay [1] (setting [2]), 90 nM.

Take “4-(2.4-Dichloro-5-methoxyanilino)-7-(3-formyl)-3-guinolinecarbonitrile [Example 112]”: the IC50 on c-Src was 36 nM; in assay [1] (setting [2]), 7300 nM.

Regarding “4-[(2,4-Dichloro-5-methoxyphenyl)amino]-7-[4-(4-morpholinyl)phenyl]-3-quinolinecarbonitrile [Example 128]”, the IC50 is 3.2 nM against c-Src and 640 nM in assay [1] (setting [2]).

For `N#Cc1cnc2cc(C=CCCCN3CCOCC3)ccc2c1Nc1ccc(Cl)cc1Cl` (mixture of isomers) [Example 12, 4-(2,4-Dichloroanilino)-7-[(E/Z)-5-(4-morpholin)-1-pentenyl]-3-quinolinecarbonitrile], the results for the IC50 (on c-Src; in assay [1] (setting [3])) were 77 nM and more than 10000 nM, respectively.

For the compound `N#Cc1cnc2cc(C=CCCCCN3CCOCC3)ccc2c1Nc1ccc(Cl)cc1Cl` (mixture of isomers) [Example 16, 4-(2,4-Dichloroanilino)-7-[(E/Z)-6-(4-morpholinyl)-1-hexenyl]-3-quinolinecarbonitrile], the IC50 on c-Src was 44 nM; in assay [1] (setting [3]), more than 10000 nM.

On to `COc1cc(Nc2c(C#N)cnc3cc(-c4ccc(CN5CCCC5C(N)=O)cc4)ccc23)c(Cl)cc1Cl` (stereo in doubt) [Example 84, (2R)-1-{4-[3-Cyano-4-(2,4-dichloro-5-methoxyanilino)-7-quinolinyl]benzyl}-2-pyrrolidinecarboxamide], for which the IC50 at c-Src is 7.5 nM; in assay [1] (Rattus norvegicus, Rat2, 120 h, read-out: anch-indep src-tx fib IC50), 770 nM.

For `COc1cc(Nc2c(C#N)cnc3cc(-c4ccc(C5OCCO5)o4)ccc23)c(Cl)cc1Cl` [Example 5, 4-(2,4-Dichloro-5-methoxyanilino)-7-[5-(1,3-dioxolan-2-yl)-2-furyl]-3-quinolinecarbonitrile], the IC50 was found to be 4.3 nM against c-Src and 200 nM in assay [1] (setting [3]).

For `COc1cc(Nc2c(C#N)cnc3cc(-c4ccc(C=O)o4)ccc23)c(Cl)cc1Cl` [Example 6, 4-(2,4-Dichloro-5-methoxyanilino)-7-(5-formyl-2-furyl)-3-quinolinecarbonitrile], the IC50 against c-Src worked out at 4 nM; in assay [1] (setting [3]) it was 1600 nM.

As for `N#Cc1cnc2cc(-c3ccc(CCN4CCOCC4)s3)ccc2c1Nc1ccc(Cl)cc1Cl` [Example 9, 4-(2,4-Dichloroanilino)-7-{5-[2-(4-morpholinyl)ethyl]-2-thienyl}-3-quinolinecarbonitrile], the IC50 against c-Src is 6 nM; in assay [1] (setting [3]), 2700 nM.

For `CCN1CCN(Cc2cc(-c3ccc4c(Nc5ccc(Cl)cc5Cl)c(C#N)cnc4c3)cs2)CC1` [Example 10, 4-(2,4-Dichloroanilino)-7-{5-[(4-ethyl-1-piperazinyl)methyl]-3-thienyl}-3-quinolinecarbonitrile], the IC50 on c-Src is 2.4 nM; in assay [1] (setting [3]), 900 nM.

Turning to `N#Cc1cnc2cc(C#CCCCN3CCOCC3)ccc2c1Nc1ccc(Cl)cc1Cl` [Example 11, 4-(2,4-Dichloroanilino)-7-[5-(4-morpholinyl)-1-pentynyl]-3-quinolinecarbonitrile], the IC50 was 43 nM on c-Src and more than 10000 nM in assay [1] (setting [3]).

For `N#Cc1cnc2cc(-c3ccc(CN4CCOCC4)o3)ccc2c1Nc1ccc(Cl)cc1Cl` [Example 13, 4-(2,4-Dichloroanilino)-7-[5-(4-morpholinylmethyl)-2-furyl]-3-quinolinecarbonitrile], the IC50 was 10.4 nM and 4 nM at c-Src; 1510 nM in assay [1] (setting [3]); 1590 nM in assay [1] (setting [2]).

Consider `CN(C)CC#Cc1ccc2c(Nc3ccc(Cl)cc3Cl)c(C#N)cnc2c1` [Example 15, 4-(2,4-Dichloroanilino)-7-[3-(dimethylamino)-1-propynyl]-3-quinolinecarbonitrile], for which the IC50 was 63 nM against c-Src and more than 10000 nM in assay [1] (setting [3]).

`N#Cc1cnc2cc(-c3cc(CN4CCOCC4)c(CN4CCOCC4)s3)ccc2c1Nc1ccc(Cl)cc1Cl` [Example 17, 7-[4,5-Bis(4-morpholinylmethyl)-2-thienyl]-4-(2,4-dichloroanilino)-3-quinolinecarbonitrile]: the IC50 on c-Src was 0.7 nM and 2.1 nM and 3.1 nM; in assay [1] (setting [3]) it was 310 nM.

For the compound `CCN1CCN(Cc2cc(-c3ccc4c(Nc5cc(OC)c(Cl)cc5Cl)c(C#N)cnc4c3)cs2)CC1` [Example 19, 4-(2,4-Dichloro-5-methoxyanilino)-7-{5-[(4-ethyl-1-piperazinyl)methyl]-3-thienyl}-3-quinolinecarbonitrile], the IC50 against c-Src was 2 nM and 1.7 nM; in assay [1] (setting [3]) it was 160 nM.

On to `COc1cc(Nc2c(C#N)cnc3cc(-c4cc(CN5CCOCC5)c(CN5CCOCC5)s4)ccc23)c(Cl)cc1Cl` [Example 20, 7-[4,5-Bis(4-morpholinylmethyl)-2-thienyl]-4-(2,4-dichloro-5-methoxyanilino)-3-quinolinecarbonitrile], for which the IC50 against c-Src is 1.1 nM and 0.8 nM; in assay [1] (setting [3]) it was 40 nM; in assay [1] (setting [2]), 30 nM.

For the compound `COc1cc(Nc2c(C#N)cnc3cc(-c4ccc(CCCCN5CCOCC5)s4)ccc23)c(Cl)cc1Cl` [Example 22, 4-(2,4-Dichloro-5-methoxyanilino)-7-{5-[4-(4-morpholinyl)butyl]-2-thienyl}-3-quinolinecarbonitrile], the IC50 is 6.8 nM against c-Src and 600 nM in assay [1] (setting [3]).

With `COc1cc(Nc2c(C#N)cnc3cc(-c4ccc(CN5CCOCC5)s4)ccc23)c(Cl)cc1Cl` [Example 23, 4-(2,4-Dichloro-5-methoxyanilino)-7-[5-(4-morpholinylmethyl)-2-thienyl]-3-quinolinecarbonitrile], the IC50 on c-Src came out at 2 nM; in assay [1] (setting [3]), 90 nM.

Turning to `COc1cc(Nc2c(C#N)cnc3cc(-c4csc(CN5CCOCC5)c4)ccc23)c(Cl)cc1Cl` [Example 24, 4-(2,4-Dichloro-5-methoxyanilino)-7-[5-(4-morpholinylmethyl)-3-thienyl]-3-quinolinecarbonitrile], the IC50 against c-Src was 2.1 nM and 3.7 nM; in assay [1] (setting [2]), 180 nM.

Turning to `N#Cc1cnc2cc(-c3csc(CN4CCOCC4)c3)ccc2c1Nc1ccc(Cl)cc1Cl` [Example 25, 4-(2,4-Dichloroanilino)-7-[5-(4-morpholinylmethyl)-3-thienyl]-3-quinolinecarbonitrile], the IC50 was 3.6 nM and 6 nM and 4.9 nM at c-Src; 1300 nM in assay [1] (setting [3]); 930 nM in assay [1] (setting [2]).

`COc1cc(Nc2c(C#N)cnc3cc(C#CCN4CCOCC4)ccc23)c(Cl)cc1Cl` [Example 146, 4-(2,4-dichloro-5-methoxyanilino)-7-[3-(4-morpholinyl)-1-propynyl]-3-quinolinecarbonitrile]: the IC50 in assay [1] (setting [3]) turned out to be 6500 nM.

On to `COc1cc(Nc2c(C#N)cnc3cc(C#CCCl)ccc23)c(Cl)cc1Cl` [Example 152, 7-(3-chloro-1-propynyl)-4-[(2,4-dichloro-5-methoxyphenyl)amino]-3-quinolinecarbonitrile], for which the figures for the IC50 in assay [1] (setting [3]) and in assay [1] (setting [2]) were 4800 nM and 3800 nM, respectively.

In the case of `COc1cc(Nc2c(C#N)cnc3cc(-c4ccc(CN5CCSCC5)cc4)ccc23)c(Cl)cc1Cl` [Example 153, 4-[(2,4-dichloro-5-methoxyphenyl)amino]-7-[4-(4-thiomorpholinylmethyl)phenyl]-3-quinolinecarbonitrile], the IC50 in assay [1] (setting [3]) came to 2800 nM; in assay [1] (setting [2]), 2700 nM.
